Data from patent publication US8772250B2, “Compositions and methods for treating ischemia and ischemia-reperfusion injury” (Ischemix, LLC, priority 2010, dated 2014).
Peptide text beside a SMILES is read from it.

Tests used:
[1] = system: myocardial ischemia-reperfusion injury; experiment: Rat model of myocardial I/R injury (MI/AR ratio); assay type: in vivo; conditions: rat model of myocardial I/R injury; data not shown
Text: A rat model of myocardial I/R injury was used as an in vivo screen to determine if certain lipoic acid derivative compounds are cardio-protective (e.g., against mycoardial ischemia-reperfusion injury). This model is analogous to the ischemia-reperfusion injury observed in cardiac patients following coronary occlusions and cardiac surgery procedures, such as coronary artery bypass grafting (CABG) (Matsui, T., Tao, J., del Monte, F., Lee, K.-H. et al., Akt Activation Preserves Cardiac Function and Prevents Injury After Transient Cardiac Ischemia In vivo, Circulation 2001, 104:330).
The circumflex branch of the left coronary artery was ligated temporarily to induce regional ischemia in the left ventricular mass, followed by the injection of fluorescent microspheres to delineate the ischemic region. The animals were sacrificed about 24 hours after reperfusion and the hearts were excised, sectioned and stained with triphenyltetrazolium. The direct impact of the pharmacologic intervention was determined by measuring the myocardial infarct area (MI), the ischemic area at risk (AR) and the left ventricular area (LV). The reduction of MI over the AR (MI/AR ratio) was used as the primary measure of drug efficacy relative to vehicle controls.
Male Sprague-Dawley rats between 300 and 350 gm were used for these experiments. Anesthesia was induced with 3-4% isoflurane in an induction chamber. After induction, anesthesia was maintained at a surgical plane with 1.5-2.0% isoflurane, administered by a Rodent Ventilator through a 16-gauge angiocatheter introduced orally into the trachea. The ventilator was set at 2.5 cc at a rate of 60-65 breaths per minute to maintain ventilation during surgery. The core temperature of the animal was monitored and maintained at 37° C. using a rectal probe and a heating lamp attached to a temperature controller.
A left anterior thoracotomy was performed and the heart was exposed using a vertical pericardotomy. The circumflex branch of the left coronary artery (LCx) was ligated approximately 4 mm from the aorta using a cardiovascular 7.0 monofilament suture on an 11 mm needle to induce ischemia in the left ventricle.
Fluorescent microspheres (300 μL) were injected into the left ventricular cavity 10-20 minutes after the ligation to delineate the ischemic area. The suture was removed 30 minutes after ligation to reperfuse the ischemic area and the ischemic area was checked for reperfusion.
The chest was then closed in layers using absorbable suture (Dexon 5-0) for the muscle layers and monofilament Nylon 5-0 suture was used to close the cutaneous layer. The animals were allowed to recover, then were returned to the colony.
Twenty-four hours after reperfusion, anesthesia was induced using ketamine hydrochloride and the chest was opened. The animals were sacrificed with 15% potassium chloride aqueous solution (w/v) injected into the LV cavity to arrest the heart in diastole. The heart was excised distal to the aortic valve and washed with saline to remove the blood. Sagittal slices of the heart were obtained between the base of the ventricle and the apex. Five slices of heart tissue were obtained, each 2 mm thick. The slices were immersed in a 1% 2,3,5-triphenyl-2H-tetrazolium chloride (TTC) in saline solution and then stored in the dark for 30 minutes to stain.
Images of the slices were obtained under bright field (to observe the TTC staining) and under fluorescence (to observe the microspheres). The area at risk was determined by the absence of microspheres and the infarct area was determined by the absence of TTC staining.
In vivo experiments employing a rat model of myocardial I/R injury were performed as described in Example 8. Catheterized (jugular vein) rats were used for intravenous dose administration at time points prior to and/or including 0.25 h.

[2] = system: CHO M1-WT3 cells; experiment: Cytosolic calcium overload assay, carbachol stimulated; assay type: cell-based, Chinese hamster; conditions: 200 nM carbachol, variant concentrations
Text: Cytosolic calcium increases in the CHO M1-WT3 cells when stimulated with carbachol ([Molecular Devices, FlexStation Application Note 2, Comparison of FLIPR® and FLEXstation™ for Calcium Mobilization Assays]) and may be detected with a fluorescent dye that binds calcium. An increase in fluorescence following carbachol stimulation is interpreted as an increase in cytosolic calcium. Chinese hamster ovary (CHO) cells were allowed to adhere to the bottom of a 96-well culture plate. The fluorescent dye and a test sample were placed on the plate and allowed to be taken up by the cells. The fluorescence level was measured every two seconds using a plate reader (Flexstation II, Molecular Devices, Sunnyvale Calif.). The cells were stimulated with carbachol and fluorescent data reported as the peak increase in fluorescence above baseline following carbachol stimulation. Data were normalized to the peak carbachol response in the control sample.
CHO cells from the cell line CHO-M1-WT3 were grown in Hams F12 medium supplemented with 10% FBS and 5 μg/mL G418 to maintain expression of the M1 muscarinic receptor. Cells were seeded the night before the experiment at a concentration of 30,000 cells/well in a volume of 100 μL per well of black walled, clear bottomed, 96-well microplates (“assay plates”). Cells were incubated at 37° C. and 5% CO2 overnight. […] The cells were placed into the FlexStation system to monitor fluorescence before and after the addition of 50 μL of 1 μM carbachol for a final concentration of 200 nM. Fluorescence was measured for 17 seconds prior to carbachol addition and 43 seconds following carbachol addition. The Fluo-4 dye was excited at a wavelength of 485 nm and emission measured at 525 nm. The Calcium-3 dye was excited at a wavelength of 494 nm and emission measured at 525 nm. The calcium response was reported as the peak fluorescence minus the baseline fluorescence calculated as the average of the fluorescence prior to carbachol addition.

[3] = Oxygen Radical Absorbance Capacity (ORAC) assay
Text: Peroxyl radicals are one species of reactive oxygen produced by cells during reperfusion. The presence of peroxyl radicals can be detected by fluorescein oxidation. In the presence of peroxyl radicals, fluorescein fluorescence will decay over time. In the presence of an oxygen radical scavenger, the rate of decay is diminished. The change in the rate of decay between control and in the presence of scavengers is used to measure the peroxyl radical scavenging ability of a test compound.
Each compound tested was diluted to a concentration ranging from 25 μM to 250 μM in 10 mM phosphate buffer (pH=7.4) containing 10 nM fluorescein. The buffer and compound were incubated at 37° C. for 10 minutes. After the incubation, flourescein fluorescence was measured using a plate reader (Molecular Devices Flexstation II, Ex=485, Em=520). Baseline fluorescence measurements were recorded for 15 minutes before 2,2′-azobis(2-methylpropionamidine) dihydrochloride (AAPH) was added. The fluorescence decay was recorded for 90 minutes. The fluorescence decay without compound was subtracted from the fluorescence decay with compound. The slope of the decay vs. concentration is reported as the absorbance capacity.

[4] = system: Akt; experiment: Cytoblot assay for Akt activation in A549 cells; assay type: cell-based, human
Experimental: The ability of RLip-EA-OH to increase phosphorylated Akt was assayed using an in-cell western blot, or cytoblot. A549 cells (human non-small cell lung cancer cell line) were selected because these cells can be manipulated to increase or decrease the level of phosphoryated Akt. The cells were inoculated onto culture plates and allowed to adhere to the bottom, then treated, fixed, and permeabilized. Following permeabilization, the cells were treated with antibodies specific for either phospho-Akt or total Akt. The cells were then treated with fluorescent secondary antibodies to quantify the amount of bound primary antibody. Total Akt and phospho-Akt were simultaneously detected.
A549 cells were plated in 384 well black-wall, clear-bottom, cell culture-treated microtiter plates at 70% confluence. Cells were incubated overnight to allow cell attachment. The media was changed to low serum (0.1%, fetal bovine serum [FBS]) and the cells were incubated for another 24 hours. Cells were treated with test compounds, fixed and permeabilized for the Akt assay. The fixative was 3.7% formaldehyde in phosphate buffered saline. The permeabilization buffer was 0.5% Triton X-100 in phosphate buffered saline. After permeabilization of cells, the amounts of total Akt and phosphorylated Akt at either of the two phosphorylation sites (threonine-308 and serine-473) were determined at 7 test concentrations, each performed in quadruplicate. The phospho-Akt data were normalized to total Akt and background subtracted for analysis.
Following overnight serum starvation to reduce basal Akt phosphorylation, cells were stimulated with vehicle, RLip-EA-OH, or RLip-OH. Cells were treated for 45 minutes or 3 hours and studied for phosphorylation at serine-473 or threonine 308, respectively.

[5] = system: Akt; experiment: Immunohistochemistry assay for phosphorylated Akt in H9c2 cells; assay type: cell-based, rat; conditions: co-treatment with LY294002 (25 μM), 30 minutes prior to RLip-EA-OH
Experimental: The ability of RLip-EA-OH to increase phosphorylated Akt was assayed in H9c2 cells by immunocytochemistry followed by visualization using microscopy. H9c2 cells are a cell line derived from rat cardiac myocytes and can be manipulated to increase or decrease the level of phosphoryated Akt. Cells were inoculated onto culture plates and allowed to adhere to the bottom, treated, fixed, and permeabilized. Following permeabilization, cells were treated initially with specific phospho-Akt antibodies followed by fluorescent secondary antibodies to quantify the amount of bound primary antibody.
H9c2 cells were plated in 12 well cell culture treated plates at 70% confluence. Cells were incubated overnight to allow cell attachment. The media was changed to low serum (0.5%, fetal bovine serum [FBS]) and cells incubated for another 48 hours. Cells were treated for 3 hours with either vehicle, RLip-EA-OH (50 μM), or co-treatment with LY294002 (25 μM), fixed with 3.7% formaldehyde in phosphate buffered saline and permeabilized with 0.5% Triton X-100 in phosphate buffered saline. After permeabilization, the cells were treated with antibody specific for Akt phosphorylated at threonine-308, followed by treatment with a fluorescent labeled secondary antibody.

[6] = biological target: T1, insulin receptor kinase (Homo sapiens, UniProt P06213); experiment: IRK activation assay (mobility shift kinase assay); assay type: biochemical
T1 construct: insulin receptor kinase domain (Millipore catalog #14-466, 80 nM); purchased Millipore 14-466
T1 sequence (P06213 1023-1298 limits assumed): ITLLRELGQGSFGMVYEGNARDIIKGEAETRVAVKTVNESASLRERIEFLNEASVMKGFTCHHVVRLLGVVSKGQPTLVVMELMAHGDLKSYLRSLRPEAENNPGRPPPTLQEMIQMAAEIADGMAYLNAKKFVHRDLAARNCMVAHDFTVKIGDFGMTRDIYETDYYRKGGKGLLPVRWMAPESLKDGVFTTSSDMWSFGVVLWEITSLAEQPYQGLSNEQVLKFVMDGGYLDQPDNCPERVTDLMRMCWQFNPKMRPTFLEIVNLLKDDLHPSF
Text: Insulin receptor kinase activity was readily measured by a mobility shift assay using a Caliper LabChip® 3000 and a 12-sipper LabChip® to detect both phosphorylated and unphosphorylated substrate (Caliper Life Sciences, Discovery Alliances and Services Division, Hanover, Md.). The mobility-shift kinase assay uses a micro fluidic chip to measure the conversion of a fluorescent peptide substrate to a phosphorylated product. The reaction mixture from a microtiter plate well was introduced through a capillary sipper onto the chip and the nonphosphorylated substrate and phosphorylated product were separated by electrophoresis and detected via laser-induced fluorescence. […] The catalytic subunits of tyrosine kinases have endogenous levels of activity in the presence of ATP and substrate, thus the results are presented as a % of control.
Specifically, each test compound was diluted to 25 times its assay concentration with 100% DMSO and added to 12 μL of an assay buffer solution (100 mM HEPES, 10 mM MnCl2, 5 mM B-GP, and 0.002% Brij) containing dithiotheritol (DTT, 2 mM) and insulin receptor kinase domain (Millipore catalog #14-466, 80 nM) prior to pre-incubation at room temperature for 15 minutes. […] The samples were placed on the LabChip 3000 to measure the amount of parent substrate and phosphorylated product. […]

[7] = biological target: IGF1R (Homo sapiens, UniProt P08069); experiment: IGF1R tyrosine kinase activation assay (mobility shift); assay type: biochemical
Chain of IGF1R (P08069 959-1367 limits assumed, species assumed): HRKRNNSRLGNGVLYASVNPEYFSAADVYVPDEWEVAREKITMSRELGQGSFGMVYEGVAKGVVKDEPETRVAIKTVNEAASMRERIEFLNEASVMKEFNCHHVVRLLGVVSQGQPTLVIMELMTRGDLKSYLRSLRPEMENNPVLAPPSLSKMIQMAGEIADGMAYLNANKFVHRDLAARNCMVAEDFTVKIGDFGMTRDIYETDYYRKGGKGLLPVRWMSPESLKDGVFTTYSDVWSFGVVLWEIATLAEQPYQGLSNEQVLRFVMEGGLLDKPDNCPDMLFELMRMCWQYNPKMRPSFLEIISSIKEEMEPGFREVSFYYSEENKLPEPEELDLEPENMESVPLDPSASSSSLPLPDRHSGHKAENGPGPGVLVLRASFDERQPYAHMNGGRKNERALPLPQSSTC
Text: (§1) IGF1R and Src tyrosine kinases have endogenous levels of activity in the presence of ATP and substrate. This activity was readily measured using a mobility shift assay using a Caliper LabChip® 3000 and a 12-sipper LabChip® to detect both phosphorylated and unphosphorylated substrate (Caliper Life Sciences, Discovery Alliances and Services Division). Enzyme, substrate and ATP concentrations were optimized for each assay. For the IGF1R assay, the final concentrations of the enzyme, peptide and ATP were 20 nM, 1.5 μM, and 1220 μM, respectively. For the Src assay, the final concentrations of the enzyme, peptide and ATP were 2.5 nM, 1.5 μM, and 17 μM, respectively.
(§2) RLip-EA-OH was evaluated at multiple concentrations for an effect on activation of IGF1 receptor kinase (IGF1R) and Src. The compounds tested activated IGF1R and Src with different selectivities.

[8] = biological target: Src (Homo sapiens, UniProt P12931); experiment: Src tyrosine kinase activation assay (mobility shift); assay type: biochemical
Chain of Src (P12931 whole entry, species assumed): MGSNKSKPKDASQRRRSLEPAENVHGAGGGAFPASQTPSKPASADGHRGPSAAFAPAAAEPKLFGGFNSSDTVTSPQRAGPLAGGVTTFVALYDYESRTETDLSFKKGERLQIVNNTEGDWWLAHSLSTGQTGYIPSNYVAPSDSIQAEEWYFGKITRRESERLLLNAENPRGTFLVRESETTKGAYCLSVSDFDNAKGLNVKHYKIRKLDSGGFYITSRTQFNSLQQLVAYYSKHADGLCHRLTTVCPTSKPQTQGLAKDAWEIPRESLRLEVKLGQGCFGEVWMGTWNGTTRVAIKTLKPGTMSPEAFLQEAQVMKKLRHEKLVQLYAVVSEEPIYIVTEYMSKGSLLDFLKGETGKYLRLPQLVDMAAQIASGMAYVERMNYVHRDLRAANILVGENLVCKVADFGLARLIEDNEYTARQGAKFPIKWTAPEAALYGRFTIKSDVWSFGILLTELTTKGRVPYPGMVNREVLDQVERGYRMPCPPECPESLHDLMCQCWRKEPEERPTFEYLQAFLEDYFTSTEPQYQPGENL
Text: as §1, §2

[9] = system: myocardial ischemia-reperfusion injury; experiment: Rat model of myocardial I/R injury (MI/AR ratio); assay type: in vivo; conditions: rat

Question: Which “efficacy compared to vehicle” value [1] does the source give for `CC(=O)N[C@@H](CCC(=O)O)C(=O)N[C@@H](C)C(=O)O` [Ac-EA-OH, N-acetyl-L-glutamyl-L- alanine, reference compound] (Ac-Glu-Ala-OH) here?
Answer: Its value is “statistically similar to vehicle”.

Question: What about the “effect on carbachol stimulated flux in cytosolic calcium” value [2] of the same compound?
Answer: The value was “minimal effect”.

Question: And the “peroxyl radical absorption capability” value ([3]; ORAC assay)?
Answer: The value was “no appreciable peroxyl radical absorption capability”.

Question: What about the “ORAC Value relative to RLip-OH” value ([3]; mean of 3-4 experiments) of the same compound?
Answer: The value was 8 ± 5.

Question: What does the source list for `O=c1cc(N2CCOCC2)oc2c(-c3ccccc3)cccc12` [LY294002, 2-(4-morpholinyl)-8-phenyl-4H-1-benzopyran-4-one, reference compound]?
Answer: effect on RLip-EA-OH-increased phosphorylation of Akt ([4]; cotreatment with 5 μM LY294002, 3 hours): completely inhibited; effect on fluorescence intensity from Akt phosphorylation induced by RLip-EA-OH [5]: diminished the fluorescence intensity

Question: What does the source list for `O=C(O)CCCC[C@@H]1CCSS1` [RLip-OH, (R)-lipoic acid, reference compound]?
Answer: IRK % Increase in activity above vehicle control ([6]; 300 μM): 48 ± 1%; increase in phosphorylated Akt at serine 473 ([4]; 45 minutes of treatment): 2 fold; amount of phosphorylated Akt relative to total Akt ([4]; variant concentrations): increased the amount of phosphorylated Akt relative to total Akt in a dose dependent manner; IGF1R % Increase in activity above vehicle control ([7]; 300 μM): 37 ± 4%; Src % Increase in activity above vehicle control ([8]; 300 μM): 15 ± 1%; Reduction of MI:AR Ratio Relative to Vehicle (%) ([9]; 2 mg/kg IC, Table 7 meta analysis): 19 ± 7 %; effect on carbachol stimulated flux in cytosolic calcium [2]: minimal effect; ORAC Value relative to RLip-OH ([3]; mean of 3-4 experiments): 100 ± 6

Question: With `C[C@H](NC(=O)[C@H](CCC(=O)O)NC(=O)CCCC[C@H]1CCSS1)C(=O)O` [SLip-EA-OH, N-(S)-lipoyl-L-glutamyl-L- alanine] as the compound, how does the “AVG % activity above control (±SEM)” value ([6]; 100 μM) read?
Answer: Its value is 4 ± 12%.

Question: And the “IGF1R % activity above control (±SEM)” value ([7]; 100 μM)?
Answer: Its value is −4 ± 10%.

Question: What about the “Src % activity above control (±SEM)” value ([8]; 100 μM) of the same compound?
Answer: Its value is 19 ± 1%.

Question: What about the MI/AR ([9]; 1 mg/kg single bolus IC 15 minutes prior to ischemia) of the same compound?
Answer: Its MI/AR is 0.401.

Question: What about the MI/AR ([9]; 2 mg/kg single bolus IC 15 minutes prior to ischemia) of the same compound?
Answer: Its MI/AR is 0.400.

Question: What about the “ORAC Value relative to RLip-EA-OH” value ([3]; mean of 3-4 experiments) of the same compound?
Answer: The value was 89 ± 4.
